Test results published in paper PMC6430684 (Cell chemical biology, 2019).
pIC50: −log10 of the molar value.

Target: HSP90α (Homo sapiens, UniProt P07900)
Assay: competitive fluorescence polarization with geldanamycin-FITC
Format: binding

`O=C1C=C(Nc2ccc3cnccc3c2)c2ccccc2C1=O` [YZ129, 4-(isoquinolin-6-ylamino)naphthalene-1,2-dione] gave a pIC50 of 7.53.
